The values that follow come from US9593144B2, “FPR1 antagonist derivatives and use thereof” (CHANG GUNG UNIVERSITY, priority 2014, dated 2017).

The subject of data set [1] is human neutrophils. Put plainly: cells. The note with it: for IC50: Neutrophil. It is filed as cell-based. The text has this: Tables 5 and 6 explore whether there is an anti-inflamatory effect in the dipeptide derivatives. Because ferricytochrome c cannot penetrate cell membranes, it reacts with superoxide anion extracellularly. Also, there are absorptive reactions at 550 nm, and differences among the absorptive reactions can be used to evaluate the influence on the release of superoxide anion. The elastase is released by degranulation as the neutrophil is activated. Tables 5 and 6 use the substrate, MeO-Suc-Ala-Ala-Pro-Val-p-nitroanilide, with the specificity for reacting with the elastase so as to evaluate the influence of the candidate compound on the elastase release.
Blood was taken from healthy human donors (20-32 years old) by venipuncture, following a protocol approved by the Institutional Review Board at Chang Gung Memorial Hospital. Neutrophils were isolated by a standard method of dextran sedimentation prior to centrifugation in a Ficoll Hypaque gradient and the hypotonic lysis of erythrocytes.
The evaluation of O2.^− generation was based on the SOD-inhibitable reduction of ferricytochrome c. In brief, after supplementation with 0.5 mg ml^−1 ferricytochrome c and 1 mM Ca^2+, neutrophils were equilibrated at 37° C. for 2 min and incubated with drugs […].

Data set [2] deals with human neutrophils. The data set can be described thus: Cytotoxic test: lactate dehydrogenase (LDH) release from human neutrophils. It is filed as cell-based. As to the method:
FIGS. 1(a)-1(b) show the influences of HCH6-1 on releasing lactate dehydrogenase (LDH) from human neutrophils under the following experimental conditions. The suspension of neutrophils was reacted with different concentrations of candidate compounds for 15 min, or fixed concentrations of candidate compounds for various times. Also, 0.1% Triton X-100 was added to react for 30 min as a release amount of total lactate dehydrogenase (Total LDH), wherein the supernatant was subjected to centrifugation for 8 min, at 200 g and at 4° C., and then a lactate dehydrogenase reagent was added and kept in the dark and at room temperature for 30 min, and an absorbance at 492 nm was monitored. Results are measured based on Total LDH as 100%.

Data set [3] relates to human neutrophils. The data set can be described thus: Expression of CD11b on the cell surface of activated neutrophils (flow cytometry). It is filed as cell-based. As to the method: The suspension of neutrophils was mixed at 37° C. and pre-heated for 5 min, and then compounds with different concentrations for measurements were added. […] And the reaction termination is done by on-ice setting. The supernatant was removed after centrifugation, and make the cells suspension again in the balanced salt solution containing bovine serum albumin (BSA). Anti-CD11b with fluorescein isothiocyanate (FITC) labeling was added, and kept on ice and in the dark. Finally, a balanced salt solution was added to terminate the reaction. By means of the flow cytometer for detecting the anti-CD11b with fluorescein isothiocyanate (FITC) labeling, it is possible to further evaluate whether the candidate compounds had influence on CD11b expression on the cell membranes of activated neutrophils according to changes in fluorescence. […].

Data set [4] concerns the target T1, formyl peptide receptor 1 (FPR1) (Homo sapiens, UniProt P21462).
T1 construct: the effect of FNLFNYK combined with FPR1 on the membranes of human neutrophils; endogenous in cells; host or cells: human neutrophils
T1 sequence (P21462 1-350): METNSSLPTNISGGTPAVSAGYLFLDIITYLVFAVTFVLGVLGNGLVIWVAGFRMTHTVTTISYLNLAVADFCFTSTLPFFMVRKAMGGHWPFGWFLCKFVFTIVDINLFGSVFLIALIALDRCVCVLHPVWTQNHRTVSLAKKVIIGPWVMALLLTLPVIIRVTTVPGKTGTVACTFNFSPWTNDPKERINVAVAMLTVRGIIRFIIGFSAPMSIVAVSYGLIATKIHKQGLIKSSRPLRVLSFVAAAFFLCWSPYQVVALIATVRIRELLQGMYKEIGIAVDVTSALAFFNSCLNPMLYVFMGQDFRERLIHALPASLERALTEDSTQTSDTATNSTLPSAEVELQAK
The data set can be described thus: Receptor test: competition with fluorescent FNLFNYK for binding to FPR1 on human neutrophils. The note with it: membranes of human neutrophils; read-out: inhibition of FNLFNYK bound to FPR1, IC50. From the text:
Membranes of human neutrophils contain fMLF receptor, formyl peptide receptor 1 (FPR1), with which formyl-NIe-Leu-Phe-NIe-Tyr-Lys (FNLFNYK) carrying the fluorescence property was combined with FPR1 and competed with the candidate compound for receptor binding. Therefore, by binding with the receptor, it was possible to further clarify whether the compound interacts with the receptor.

Data set [5] concerns MAPKs (ERK, p38 and JNK) and Akt. Put plainly: Western blot: phosphorylation of MAPKs (ERK, p38, JNK) and Akt in fMLF-stimulated neutrophils. It is filed as cell-based, human. The note with it: HCH6-1 10 μM pre-processed 5 min; fMLF 3 nM, 30 sec. From the text:
Mitogen-activated protein kinases (MAPKs) and the expression of Akt phosphorylation are closely related to the regulation of cell inflammatory response. By specific binding of antibodies, each compound's influence on protein expression activated by different signals was observed. As to neutrophils, MAPKs (ERIK, p38, and JNK) and Akt signal transduction pathways are involved in the regulation of superoxide anion generation and elastase release. It is can be seen from the above-mentioned experiments that HCH6-1 is capable of competitively inhibiting superoxide anion generation and elastase release. Whether downstream MAPKs and Akt signal transduction pathways of FPR1 were involved in the regulation of superoxide anion generation and elastase release is explored below.
The experimental conditions were as follows. HCH6-1 (10 μM) was pre-processed for 5 min, followed by stimulus of fMLF (3-30 nM) for 30 sec.

Square brackets hold non-standard residues; d marks the D form. Peptide text beside a SMILES is read from it. * marks the point of attachment. Bz = O=C(c1ccccc1)*

Consider `COC(=O)[C@@H](Cc1ccccc1)NC(=O)[C@H](Cc1c[nH]c2ccccc12)NC(=O)c1ccccc1` [Compound 3, N—(N-Benzoyl-L-tryptophanyl)-D-phenylalanine methyl ester] (Bz-Trp-[dF]-OMe), for which the IC50 turned out to be 4.98 ± 0.27 µM in the data set with human neutrophils [1] (WKYMVm, mean ± SEM, n = 4 or 8, Table 5, read-out: Superoxide anion WKYMVm IC50); 4.83 ± 0.66 µM in the data set with human neutrophils [1] (WKYMVm/CB, mean ± SEM, n = 3, Table 4, read-out: WKYMVm/CB O2•− generation (IC50)); 0.32 ± 0.03 µM in the data set on human neutrophils [1] (human neutrophils triggered by fMLF, read-out: IC50 of inhibitory effect (superoxide anion, fMLF) restated in text); 0.23 ± 0.02 µM with human neutrophils [1] (human neutrophils, fMLF/CB, mean ± SEM, n = 3, Table 4, read-out: fMLF/CB O2•− generation (IC50)); 0.32 ± 0.03 µM with human neutrophils [1] (human neutrophils, fMLF, mean ± SEM, n = 4 or 8, Table 5, read-out: Superoxide anion fMLF IC50); 0.23 ± 0.02 µM in the data set with human neutrophils [1] (human neutrophils, fMLP/CB, mean ± SEM, n = 3, Table 1, read-out: Anti-inflammation O2•− generation (IC50)). For the same molecule, the IC50 in the data set with human neutrophils [3] (Homo sapiens, Neutrophil, stimulus of fMLF (30 nM)/CB, read-out: inhibition of CD11b expression on cell membranes, IC50) came to 0.26 ± 0.05 µM; in data set [4] it was 2.02 ± 0.34 µM. Further, the “selectivity for FPR1/2 and FPR1 (difference WKYMVm vs fMLF)” value in the data set on human neutrophils [1] (superoxide anion, WKYMVm vs fMLF) came out at 15 fold. The “toxicity to cells (LDH release) during a long period” value in the data set with human neutrophils [2] (HCH6-1 30 μM, 120 min, FIG. 1(b)) is “no significant toxicity”. Moreover, the “toxicity to neutrophils (LDH release)” value with human neutrophils [2] (different concentrations, 15 min, FIG. 1(a)) was “not the results of toxicity to the neutrophils”. Further, the “inhibition of CD11b expression on cell membranes” value with human neutrophils [3] (stimulus of IL-8 (100 nM), FIG. 2(n)) was “no inhibitory effects”; in the data set with human neutrophils [3] (stimulus of MMK1, FIG. 2(h)), “no inhibitory effects”. Besides, the “phosphorylation for MAPKs (ERK, p38 and JNK) and Akt” value in data set [5] is reported as “significantly suppressed phosphorylation”.
